Calls of active or inactive are those of the source. No rule for the calls is given here.

For this data set, the system named is rodent lifetime carcinogenesis bioassay, tumor incidence TD50. Nature of the data set: chronic cancer bioassays in animals – CPDB, compiled studies (AID 1745844). The settings on record: in feed.

Broadly, the TD50 is the 50% point of the dose-response relation for the toxic effect studied. As to `O=[N+]([O-])c1ccc2c3c(cccc13)CC2`, the TD50 is 354 mg/kg/day (hamster, strain Syrian Golden, females, site: bile duct, lesion: cholangioma, dosed 26 weeks, study length 71 weeks); 90.4 mg/kg/day (mouse, strain B6C3F1, females, site: any site (literature study), lesion: several types, types named in the paper, dosed 78 weeks, study length 96 weeks); 45.3 mg/kg/day (mouse, strain B6C3F1, females, site: liver + ovary, lesion: hepatocellular carcinoma + granulosa-cell tumor + luteoma + tubular adenoma, dosed 78 weeks, study length 96 weeks); 45.8 mg/kg/day (mouse, strain B6C3F1, females, site: liver, lesion: hepatocellular adenoma + hepatocellular carcinoma + neoplastic nodule, dosed 78 weeks, study length 96 weeks); 45.8 mg/kg/day (mouse, strain B6C3F1, females, site: liver, lesion: hepatocellular carcinoma, dosed 78 weeks, study length 96 weeks); 1320 mg/kg/day (mouse, strain B6C3F1, females, site: lung, lesion: alveolar/bronchiolar adenoma + alveolar/bronchiolar carcinoma, dosed 78 weeks, study length 96 weeks). Besides, the TD50 (mouse, strain B6C3F1, females, site: ovary, lesion: granulosa-cell tumor + luteoma + tubular adenoma, dosed 78 weeks, study length 96 weeks) is 217 mg/kg/day; the TD50 (mouse, strain B6C3F1, females, site: ovary, lesion: tubular adenoma, dosed 78 weeks, study length 96 weeks) was 395 mg/kg/day; the TD50 (rat, strain Fischer 344, females, site: any site (literature study), lesion: several types, types named in the paper, dosed 78 weeks, study length 101 weeks) came out at 6.44 mg/kg/day; the TD50 (rat, strain Fischer 344, females, site: clitoral gland + ear canal + lung + mammary gland, lesion: carcinoma, NOS + carcinosarcoma + ceruminous carcinoma + squamous-cell carcinoma + alveolar/bronchiolar adenoma + alveolar/bronchi, dosed 78 weeks, study length 101 weeks) was 5.98 mg/kg/day; the TD50 (rat, strain Fischer 344, females, site: clitoral gland, lesion: carcinoma, NOS, dosed 78 weeks, study length 101 weeks) is 52.2 mg/kg/day; the TD50 (rat, strain Fischer 344, females, site: ear canal, lesion: carcinosarcoma + ceruminous carcinoma + squamous-cell carcinoma, dosed 78 weeks, study length 101 weeks) was 14.9 mg/kg/day. The TD50 (rat, strain Fischer 344, females, site: ear canal, lesion: ceruminous carcinoma, dosed 78 weeks, study length 101 weeks) was 17.4 mg/kg/day; the TD50 (rat, strain Fischer 344, females, site: ear canal, lesion: squamous-cell carcinoma, dosed 78 weeks, study length 101 weeks) is 90.5 mg/kg/day; the TD50 (rat, strain Fischer 344, females, site: lung, lesion: alveolar/bronchiolar adenoma + alveolar/bronchiolar carcinoma, dosed 78 weeks, study length 101 weeks) was 9.63 mg/kg/day; the TD50 (rat, strain Fischer 344, females, site: mammary gland, lesion: adenocarcinoma, NOS + papillary cystadenocarcinoma, NOS, dosed 78 weeks, study length 101 weeks) was 77.9 mg/kg/day; the TD50 (rat, strain Fischer 344, females, site: mammary gland, lesion: adenocarcinoma, NOS, dosed 78 weeks, study length 101 weeks) is 81.7 mg/kg/day; the TD50 (rat, strain Fischer 344, males, site: any site (literature study), lesion: several types, types named in the paper, dosed 74 weeks, study length 101 weeks) came to 5.58 mg/kg/day. Further, the TD50 is, setting by setting: (rat, strain Fischer 344, males, site: ear canal + lung, lesion: ceruminous carcinoma + squamous-cell carcinoma + alveolar/bronchiolar adenoma + alveolar/bronchiolar carcinoma, dosed 74 weeks, study length 101 weeks) 6.45 mg/kg/day; (rat, strain Fischer 344, males, site: ear canal, lesion: ceruminous carcinoma + squamous-cell carcinoma, dosed 74 weeks, study length 101 weeks) 7.88 mg/kg/day; (rat, strain Fischer 344, males, site: ear canal, lesion: ceruminous carcinoma, dosed 74 weeks, study length 101 weeks) 8.92 mg/kg/day; (rat, strain Fischer 344, males, site: ear canal, lesion: squamous-cell carcinoma, dosed 74 weeks, study length 101 weeks) 68.2 mg/kg/day; (rat, strain Fischer 344, males, site: kidney, lesion: tubular-cell adenoma + tubular-cell adenocarcinoma, dosed 74 weeks, study length 101 weeks) 42.9 mg/kg/day; (rat, strain Fischer 344, males, site: liver, lesion: hepatocellular adenoma + hepatocellular carcinoma + neoplastic nodule, dosed 74 weeks, study length 101 weeks) 71.4 mg/kg/day. The TD50 (rat, strain Fischer 344, males, site: lung, lesion: alveolar/bronchiolar adenoma + alveolar/bronchiolar carcinoma, dosed 74 weeks, study length 101 weeks) was 29.9 mg/kg/day; the TD50 (rat, strain Fischer 344, males, site: lung, lesion: alveolar/bronchiolar carcinoma, dosed 74 weeks, study length 101 weeks) is 35.1 mg/kg/day; the TD50 (rat, strain Fischer 344, males, site: thyroid gland, lesion: follicular-cell adenoma + papillary adenoma, dosed 74 weeks, study length 101 weeks) is 58.5 mg/kg/day; the TD50 (rat, strain Fischer 344, males, site: thyroid gland, lesion: follicular-cell carcinoma + papillary adenocarcinoma, dosed 74 weeks, study length 101 weeks) is 37.7 mg/kg/day. Also, the carcinogen call (mouse, strain B6C3F1, males, site: any site (literature study), lesion: several types, types named in the paper, dosed 78 weeks, study length 95 weeks) was “negative (inactive)”.

On to `Cc1cccc(Nc2cc(Cl)nc(SCC(=O)O)n2)c1C`, for which the carcinogen call reads like this: (hamster, strain Syrian, MB strain, males, site: liver, lesion: several types, types named in the paper, dosed 60 weeks, study length 60 weeks) “negative (inactive)”; (mouse, strain CSb, males, site: liver, lesion: hepatocellular carcinoma, dosed 53 weeks, study length 63 weeks) “positive”; (rat, strain F344/DuCrj, males, site: liver, lesion: several types, types named in the paper, dosed 78 weeks, study length 78 weeks) “positive”; (rat, strain Fischer 344, males, site: liver, lesion: hepatocellular carcinoma, trabecular, dosed 69 weeks, study length 69 weeks) “positive”; (rat, strain Fischer 344, males, site: liver, lesion: hepatocellular carcinoma, dosed 65 weeks, study length 65 weeks) “positive”; (rat, strain Fischer 344, males, site: liver, lesion: several types, types named in the paper, dosed 52 weeks, study length 52 weeks) “positive”. Further, the carcinogen call (rat, strain Sprague-Dawley, males, site: liver, lesion: several types, types named in the paper, dosed 60 weeks, study length 60 weeks) is “positive”. For the same molecule, the TD50 runs as follows: (rat, strain F344/DuCrj, males, site: liver, lesion: several types, types named in the paper, dosed 52 weeks, study length 52 weeks) 4.26 mg/kg/day; (rat, strain Fischer 344, males, site: liver, lesion: hepatocellular adenoma, dosed 37 weeks, study length 52 weeks) 95.1 mg/kg/day; (rat, strain Fischer 344, males, site: liver, lesion: hepatocellular adenoma, dosed 37 weeks, study length 104 weeks) 190 mg/kg/day; (rat, strain Fischer 344, males, site: liver, lesion: hepatocellular adenoma, dosed 52 weeks, study length 52 weeks) 2.29 mg/kg/day; (rat, strain Fischer 344, males, site: liver, lesion: hepatocellular adenoma, dosed 52 weeks, study length 104 weeks) 84.3 mg/kg/day; (rat, strain Fischer 344, males, site: liver, lesion: hepatocellular carcinoma, dosed 37 weeks, study length 104 weeks) 92.6 mg/kg/day. Also, the TD50 was 19.2 mg/kg/day (rat, strain Fischer 344, males, site: liver, lesion: hepatocellular carcinoma, dosed 52 weeks, study length 52 weeks); 26.8 mg/kg/day (rat, strain Fischer 344, males, site: liver, lesion: hepatocellular carcinoma, dosed 52 weeks, study length 104 weeks); 60 mg/kg/day (rat, strain Fischer 344, males, site: liver, lesion: several types, types named in the paper, dosed 37 weeks, study length 104 weeks); 22.9 mg/kg/day (rat, strain Fischer 344, males, site: liver, lesion: several types, types named in the paper, dosed 52 weeks, study length 104 weeks).
